Two molecules from paper PMC11506356, “Selective Inhibition of Deamidated Triosephosphate Isomerase by Disulfiram, Curcumin, and Sodium Dichloroacetate: Synergistic Therapeutic Strategies for T-Cell Acute Lymphoblastic Leukemia in Jurkat Cells” (Biomolecules, 2024) can be followed below.

In experiment [1] the target is T1, deamidated triosephosphate isomerase (dTPI) (Homo sapiens, UniProt P60174, N16D).
T1 construct: gene TPI1; recombinant human TPI, His-TEV tag removed
Put plainly: recombinant enzyme inactivation ([…] h, […] °C; coupled NADH assay), Ellman free-thiol quantification, ANS fluorescence. It is filed as biochemical. The note with it: 2 h; read-out: recombinant enzyme inactivation (2 h, 37 °C; coupled NADH assay), Ellman free-th. (In Ellman's method for cholinesterases, released thiocholine reacts with DTNB.)

For experiment [2], the target named is T1, deamidated triosephosphate isomerase (dTPI). Put plainly: recombinant enzyme inactivation ([…] h, […] °C; coupled NADH assay), ANS fluorescence. The class given is biochemical. The note with it: 2 h; read-out: recombinant enzyme inactivation (2 h, 37 °C; coupled NADH assay), ANS fluorescen.

T1 sequence (P60174 2-249 N16D): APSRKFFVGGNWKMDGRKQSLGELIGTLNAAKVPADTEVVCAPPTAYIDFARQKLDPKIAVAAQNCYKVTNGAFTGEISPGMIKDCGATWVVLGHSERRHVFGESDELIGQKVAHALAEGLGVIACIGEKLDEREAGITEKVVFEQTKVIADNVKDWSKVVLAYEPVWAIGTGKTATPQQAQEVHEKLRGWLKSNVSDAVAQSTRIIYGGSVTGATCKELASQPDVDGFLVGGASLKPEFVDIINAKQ

Turning to `CCN(CC)C(=S)SSC(=S)N(CC)CC` [DS, disulfiram], in experiment [1], the IC100 stood at 250 µM.

Consider `COc1cc(/C=C/C(=O)CC(=O)/C=C/c2ccc(O)c(OC)c2)ccc1O` [CU, curcumin], for which, in experiment [2], the IC90 is around 1500 µM.
